In ChEMBL document CHEMBL1153496, “SAR studies on azasterols as potential anti-trypanosomal and anti-leishmanial agents” (Bioorg Med Chem, 2009):

Legend:
[1] = Cytotoxicity against rat L6 cells; format: cell-based; settings: read-out: TD50 (the source's name)
Trypanosoma cruzi = experiment: Antitrypanosomal activity against Trypanosoma cruzi amastigotes; format: functional, organism-based
Leishmania donovani = experiment: Antitrypanosomal activity against Leishmania donovani amastigotes; format: functional, organism-based
[2] = test system: Trypanosoma brucei rhodesiense; experiment: Antitrypanosomal activity against Trypanosoma brucei rhodesiense blood stream form; format: functional, organism-based
[3] = Lipophilicity, log D of the compound; format: physicochemical; settings: octanol/water
KB = experiment: Cytotoxicity against human KB cells; format: functional, cell-based
[4] = Dissociation constant, pKa of the compound; format: physicochemical
[5] = Stability assessed as ionization at pH 7.4; format: physicochemical
[6] = Inhibition of Saccharomyces cerevisiae SMT

| EC50 (Trypanosoma cruzi) [µM] | EC50 [2] [µM] | logD [3] | pKa [4] | Activity [5] [%] | IC50 [6] [µM] | SMILES | CC50 [1] [µM] | EC50 (Leishmania donovani) [µM] | EC50 (KB) [µM] |
| --- | --- | --- | --- | --- | --- | --- | --- | --- | --- |
| 24.7 | 0.012 | – | – | – | – | COC(=O)CCCNC[C@@H](C)[C@H]1CC[C@H]2[C@@H]3CC=C4C[C@@H](OC(C)=O)CC[C@]4(C)[C@H]3CC[C@]12C | – | 19.2 | 19.2 |
| 11.6 | 6.2 | 4.4 | 7.1 | 34 | – | COC(=O)CCCNC[C@@H](C)[C@H]1CC[C@H]2[C@@H]3CC=C4C[C@@H](OC(=O)CN(C)C)CC[C@]4(C)[C@H]3CC[C@]12C | 24 | 18.5 | – |
| 7.6 | 0.8 | 5.1 | – | – | – | CCC(=O)O[C@H]1CC[C@@]2(C)C(=CC[C@H]3[C@@H]4CC[C@H]([C@H](C)CNCCCC(=O)OC)[C@@]4(C)CC[C@@H]32)C1 | 21.9 | 12.1 | – |
| 1.7 | 1.6 | 5.6 | – | – | – | CCCC(=O)O[C@H]1CC[C@@]2(C)C(=CC[C@H]3[C@@H]4CC[C@H]([C@H](C)CNCCCC(=O)OC)[C@@]4(C)CC[C@@H]32)C1 | 30.7 | 6.8 | – |
| 10.8 | 3.9 | 6 | – | – | – | COC(=O)CCCNC[C@@H](C)[C@H]1CC[C@H]2[C@@H]3CC=C4C[C@@H](OC(=O)CC(C)C)CC[C@]4(C)[C@H]3CC[C@]12C | 33.2 | 4.9 | – |
| 13.7 | 9.8 | 4.1 | 4.4 | 99 | – | COC(=O)CCCNC[C@@H](C)[C@H]1CC[C@H]2[C@@H]3CC=C4C[C@@H](OC(=O)CCC(=O)O)CC[C@]4(C)[C@H]3CC[C@]12C | 76.7 | 35.7 | – |

The remaining lines, values behind:

| SMILES | EC50 (Trypanosoma cruzi) [µM] | EC50 [2] [µM] | logD [3] | pKa [4] | Activity [5] [%] | IC50 [6] [µM] | CC50 [1] [µM] | EC50 (Leishmania donovani) [µM] | EC50 (KB) [µM] |
| --- | --- | --- | --- | --- | --- | --- | --- | --- | --- |
| CC(=O)O[C@H]1CC[C@@]2(C)C(=CC[C@H]3[C@@H]4CC[C@H]([C@H](C)CCC(=O)NCCCCCC(=O)O)[C@@]4(C)CC[C@@H]32)C1 | 41.9 | 56 | – | – | – | – | 63 | 2 | – |
| COC(=O)CCCNC[C@@H](C)[C@H]1CC[C@H]2[C@@H]3CC=C4C[C@@H](OC(=O)c5cccnc5)CC[C@]4(C)[C@H]3CC[C@]12C | 2.51 | 0.8 | 5.2 | – | – | – | 9.8 | 13.7 | – |
| CC(=O)O[C@H]1CC[C@@]2(C)C(=CC[C@H]3[C@@H]4CC[C@H]([C@H](C)CCCNCCCCCC(=O)O)[C@@]4(C)CC[C@@H]32)C1 | 28.9 | 11.2 | – | – | – | – | 56 | 11.4 | – |
| COC(=O)CCCCCNC(=O)CC[C@@H](C)[C@H]1CC[C@H]2[C@@H]3CC=C4C[C@@H](OC(C)=O)CC[C@]4(C)[C@H]3CC[C@]12C | 23 | 14.6 | – | – | – | – | > 165 | 1.6 | – |
| COC(=O)CCCCCNCCC[C@@H](C)[C@H]1CC[C@H]2[C@@H]3CC=C4C[C@@H](OC(C)=O)CC[C@]4(C)[C@H]3CC[C@]12C | 11.1 | 2 | – | – | – | – | 7.4 | 11.7 | – |
| COC(=O)CCCNCCC[C@@H](C)[C@H]1CC[C@H]2[C@@H]3CC=C4C[C@@H](OC(C)=O)CC[C@]4(C)[C@H]3CC[C@]12C | 7.4 | 1.8 | – | – | – | – | 5.8 | 23.8 | – |
| C[C@H](CCCN(C)C)[C@H]1CC[C@H]2C3=C(CC[C@]12C)[C@@]1(C)CC[C@H](O)C[C@@H]1CC3 | – | – | – | – | – | 0.08 | – | – | – |
| CC(=O)O[C@H]1CC[C@@]2(C)C(=CC[C@H]3[C@@H]4CC[C@H]([C@H](C)CCCN5CCCC5=O)[C@@]4(C)CC[C@@H]32)C1 | 25 | 38.3 | – | – | – | – | 2.5 | 13.9 | – |
| CC(=O)O[C@H]1CC[C@@]2(C)C(=CC[C@H]3[C@@H]4CC[C@H]([C@H](C)CCC(=O)N(C)C)[C@@]4(C)CC[C@@H]32)C1 | 28.2 | 21.7 | – | – | – | – | > 202 | 24.6 | – |
| COC(=O)CCCNC[C@@H](C)[C@H]1CC[C@H]2[C@@H]3CC=C4C[C@@H](OC(=O)C(C)(C)C)CC[C@]4(C)[C@H]3CC[C@]12C | 9.7 | 2.2 | 5.8 | – | – | – | 11.1 | 11.3 | – |
| COC(=O)CCCNC(=O)CC[C@@H](C)[C@H]1CC[C@H]2[C@@H]3CC=C4C[C@@H](OC(C)=O)CC[C@]4(C)[C@H]3CC[C@]12C | 19.7 | 18.4 | – | – | – | – | > 174 | 3.1 | – |
